Measured values published in the supplement of paper PMC10307832.

What was measured:
Test in all cases: relative viability (nuclei count vs DMSO), 5 days (fraction); higher = more cells survive
Omipalisib + Dasatinib = compound: COc1ncc(-c2ccc3nccc(-c4ccnnc4)c3c2)cc1NS(=O)(=O)c1ccc(F)cc1F [Omipalisib] + Cc1nc(Nc2ncc(C(=O)Nc3c(C)cccc3Cl)s2)cc(N2CCN(CCO)CC2)n1 [Dasatinib] (partner 0.075 µM)
Summary of the method: (§1)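 Lung cancer cell lines in 1536-well plates got either a single drug or a fixed anchor-drug dose together with five library-drug doses (not always all listed) in √10 steps, by pin tool, on the day after seeding. Nuclei were counted after 5 days, and relative viability is the treated-to-vehicle ratio of nuclei counts. Values are medians of duplicate plates.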

Omipalisib + Pictilisib = compound: COc1ncc(-c2ccc3nccc(-c4ccnnc4)c3c2)cc1NS(=O)(=O)c1ccc(F)cc1F [Omipalisib] + CS(=O)(=O)N1CCN(Cc2cc3nc(-c4cccc5[nH]ncc45)nc(N4CCOCC4)c3s2)CC1 [Pictilisib] (partner 1 µM)
Summary of the method: as §1

Omipalisib + Trametinib = compound: COc1ncc(-c2ccc3nccc(-c4ccnnc4)c3c2)cc1NS(=O)(=O)c1ccc(F)cc1F [Omipalisib] + CC(=O)Nc1cccc(-n2c(=O)n(C3CC3)c(=O)c3c(Nc4ccc(I)cc4F)n(C)c(=O)c(C)c32)c1 [Trametinib] (partner 0.02 µM)
Summary of the method: as §1

Omipalisib + Palbociclib = compound: COc1ncc(-c2ccc3nccc(-c4ccnnc4)c3c2)cc1NS(=O)(=O)c1ccc(F)cc1F [Omipalisib] + CC(=O)c1c(C)c2cnc(Nc3ccc(N4CCNCC4)cn3)nc2n(C2CCCC2)c1=O [Palbociclib] (partner 0.5 µM)
Summary of the method: as §1

Omipalisib + Alpelisib = compound: COc1ncc(-c2ccc3nccc(-c4ccnnc4)c3c2)cc1NS(=O)(=O)c1ccc(F)cc1F [Omipalisib] + Cc1nc(NC(=O)N2CCC[C@H]2C(N)=O)sc1-c1ccnc(C(C)(C)C(F)(F)F)c1 [Alpelisib] (partner 2 µM)
Summary of the method: as §1

Omipalisib + Lapatinib = compound: COc1ncc(-c2ccc3nccc(-c4ccnnc4)c3c2)cc1NS(=O)(=O)c1ccc(F)cc1F [Omipalisib] + CS(=O)(=O)CCNCc1ccc(-c2ccc3ncnc(Nc4ccc(OCc5cccc(F)c5)c(Cl)c4)c3c2)o1 [Lapatinib] (partner 2 µM)
Summary of the method: as §1

Cell Line | relative viability (Omipalisib + Dasatinib; first compound 0.0003 µM) | relative viability (Omipalisib + Dasatinib; first compound 0.003 µM) | relative viability (Omipalisib + Dasatinib; first compound 0.03 µM) | relative viability (Omipalisib + Pictilisib; first compound 0.0003 µM) | relative viability (Omipalisib + Pictilisib; first compound 0.003 µM) | relative viability (Omipalisib + Pictilisib; first compound 0.03 µM) | relative viability (Omipalisib + Trametinib; first compound 0.0003 µM) | relative viability (Omipalisib + Trametinib; first compound 0.003 µM) | relative viability (Omipalisib + Trametinib; first compound 0.03 µM) | relative viability (Omipalisib + Palbociclib; first compound 0.0003 µM) | relative viability (Omipalisib + Palbociclib; first compound 0.003 µM) | relative viability (Omipalisib + Palbociclib; first compound 0.03 µM) | relative viability (Omipalisib + Alpelisib; first compound 0.0003 µM) | relative viability (Omipalisib + Alpelisib; first compound 0.003 µM) | relative viability (Omipalisib + Alpelisib; first compound 0.03 µM) | relative viability (Omipalisib + Lapatinib; first compound 0.0003 µM) | relative viability (Omipalisib + Lapatinib; first compound 0.003 µM) | relative viability (Omipalisib + Lapatinib; first compound 0.03 µM)
NCI-H2170 | 0.517 | 0.426 | 0.453 | 0.3 | 0.137 | 0.278 | 0.801 | 0.545 | 0.303 | 0.301 | 0.236 | 0.173 | 0.704 | 0.643 | 0.484 | 0.221 | 0.257 | 0.257
SK-LU-1 | 0.175 | 0.121 | 0.109 | 0.685 | 0.504 | 0.511 | 0.411 | 0.36 | 0.253 | 0.387 | 0.329 | 0.306 | 0.937 | 0.838 | 0.642 | 0.89 | 0.724 | 0.493
NCI-H650 | 0.469 | 0.317 | 0.266 | 0.867 | 0.762 | 0.631 | 0.925 | 0.628 | 0.393 | 0.297 | 0.275 | 0.222 | 1.03 | 0.741 | 0.487 | 0.816 | 0.759 | 0.499
LOU-NH91 | 0.521 | 0.381 | 0.355 | 0.511 | 0.487 | 0.441 | 0.788 | 0.666 | 0.593 | 0.586 | 0.536 | 0.52 | 0.681 | 0.677 | 0.53 | 0.708 | 0.53 | 0.511
LK-2 | 0.231 | 0.151 | 0.169 | 0.446 | 0.306 | 0.445 | 0.595 | 0.4 | 0.201 | 0.421 | 0.203 | 0.225 | 0.962 | 0.608 | 0.521 | 0.698 | 0.502 | 0.306
LC-2-ad | 0.503 | 0.47 | 0.168 | 0.517 | 0.582 | 0.238 | 0.86 | 0.754 | 0.605 | 0.488 | 0.458 | 0.299 | 0.858 | 0.856 | 0.425 | 0.933 | 0.784 | 0.745
NCI-H2085 | 0.258 | 0.194 | 0.227 | 0.416 | 0.474 | 0.436 | 0.456 | 0.255 | 0.257 | 0.553 | 0.479 | 0.33 | 1.06 | 0.787 | 0.36 | 0.838 | 0.571 | 0.382
H3255 | 0.336 | 0.325 | 0.257 | 0.432 | 0.439 | 0.293 | 0.56 | 0.421 | 0.277 | 0.365 | 0.313 | 0.285 | 0.714 | 0.606 | 0.444 | 0.219 | 0.193 | 0.203
